From patent EP0350948B1, “Porphyrin derivatives” (TOYOHAKKA KOGYO KABUSHIKI KAISHA, priority 1988, dated 1990) come the findings set out here.

The data set can be described thus: luminescence properties of porphyrin derivatives (Table 1). Type of data set: physicochemical. An excerpt: There are two stages of destruction; Mechanism I under which the pigments are excited by light to assume the triple state which directly destroys the cancer cells, and Mechanism II under which the pigments in the triple state further excite oxygen to form the singlet state oxygen (activated oxygen) leading to cell necrosis. In the case of porphyrin derivatives, the Mechanism II is considered prevalent. By measuring the triple state life time (the fluorescence and phosphorescence life time) which indicates porphyrin's triple state, the length of phosphorescence life time is compared to reveal the intensity of photo-sensitivity. […] In other words, phosphorescence life time of metalloporphyrins coordinated with such metals as Zn and Ga is long while that of those coordinated with Mn, Fe, or Cu is very short.

`C=CC1=C(C)c2cc3[n-]c(cc4nc(cc5[n-]c(cc1n2)c(C)c5CCC(=O)OC)C(CCC(=O)OC)=C4C)c(C)c3C=C.[Co+2]` [Co-PP-Me] yielded an Absorbance of 570 nm.
With `C=CC1=C(C)c2cc3[n-]c(cc4nc(cc5[n-]c(cc1n2)c(C)c5CCC(=O)OC)C(CCC(=O)OC)=C4C)c(C)c3C=C.[Cu+2]` [Cu-PP-Me], the Absorbance is recorded as 572 nm and the Phosphorescence turned out to be 705 nm. This molecule also showed a Phosphorescence life time (Filter paper) of 20 µs. This molecule displayed a Phosphorescence life time (Solution) of 100 µs.
The molecule `C=CC1=C(C)c2cc3[n-]c(cc4nc(cc5[n-]c(cc1n2)c(C)c5CCC(=O)OC)C(CCC(=O)OC)=C4C)c(C)c3C=C.[Mg+2]` [Mg-PP-Me] gave an Absorbance of 590 nm and a Fluorescence of 600 nm.
In turn, `C=Cc1c(C)c2cc3[nH]c(cc4nc(cc5nc(cc1[nH]2)C(C)=C5CCC(=O)OC)C(CCC(=O)OC)=C4C)c(C)c3C=C` [PP-Me] came in with an Absorbance of 633 nm and a Fluorescence of 635 nm. The molecule also yielded a Phosphorescence life time (Filter paper) of 1.8 ms.
The molecule “Ga-protoporphyrin dimethyl ester [Ga-PP-Me]” showed an Absorbance of 570 nm, a Fluorescence of 575 nm and a Phosphorescence of 715 nm. The Phosphorescence life time (Filter paper) came out at 50 ms. The Phosphorescence life time (Solution) was determined as 200 ms.
